PubChem BioAssay (NCI)
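Dose response: 5 concentrations. Exposure: 48 h. Format: 96-well plates. Endpoint: linear interpolation; highest concentration if not reached. GI50 marks 50% less growth. TGI: concentration producing complete growth inhibition.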

Assays:
Assay in all cases: inhibition of tumour cell growth, NCI panel, 48 h
[1] = test system: HCT-15 colon
[2] = test system: UACC-62 melanoma
[3] = test system: MDA-MB-468 breast
[4] = test system: HL-60(TB) leukemia
[5] = test system: CCRF-CEM leukemia
[6] = test system: SF-268 CNS
[7] = test system: PC-3 prostate
[8] = test system: HS 578T breast
[9] = test system: U251 CNS
[10] = test system: SN12C renal
[11] = test system: SK-OV-3 ovarian
[12] = test system: OVCAR-5 ovarian
[13] = test system: NCI-H460 lung
[14] = test system: SK-MEL-28 melanoma
[15] = test system: EKVX NSCLC
[16] = test system: HT29 colon
[17] = test system: HCT-116 colon
[18] = test system: MALME-3M melanoma
[19] = test system: DU-145 prostate
[20] = test system: SK-MEL-5 melanoma
[21] = test system: NCI-H522 lung
[22] = test system: K-562 leukemia
[23] = test system: SNB-19 CNS
[24] = test system: A549 NSCLC
[25] = test system: UO-31 renal
[26] = test system: MDA-MB-231 breast
[27] = test system: COLO 205 colon
[28] = test system: NCI/ADR-RES ovarian
[29] = test system: SF-295 CNS
[30] = test system: MOLT-4 leukemia
[31] = test system: HCC-2998 colon
[32] = test system: CAKI-1 renal
[33] = test system: HOP-62 NSCLC
[34] = test system: MDA-MB-435
[35] = test system: OVCAR-3 ovarian
[36] = test system: SF-539 CNS
[37] = test system: OVCAR-8 ovarian
[38] = test system: SW-620 colon
[39] = test system: SR leukemia
[40] = test system: 786-0 renal
[41] = test system: UACC-257 melanoma
[42] = test system: SK-MEL-2 melanoma
[43] = test system: T-47D breast
[44] = test system: TK-10 renal
[45] = test system: IGROV1 ovarian
[46] = test system: SNB-75 CNS
[47] = test system: A498 renal
[48] = test system: NCI-H23 lung
[49] = test system: NCI-H226 lung
[50] = test system: ACHN renal
[51] = test system: HOP-92 NSCLC
[52] = test system: BT-549 breast
[53] = test system: KM12 colon
[54] = test system: MCF7 breast
[55] = test system: OVCAR-4 ovarian
[56] = test system: LOX IMVI melanoma
[57] = test system: RXF 393 renal
[58] = test system: RPMI-8226 leukemia
[59] = test system: M14 melanoma

COc1ccccc1-n1cc(C#N)c(N)c1C(=O)c1ccc(Cl)cc1Cl
GI50 [1]: 3.62 µM
TGI [1]: 64.9 µM
GI50 [2]: 3.67 µM
TGI [2]: 42.8 µM
GI50 [3]: 2.48 µM
TGI [3]: 8.82 µM
GI50 [4]: 3.15 µM
TGI [4]: 70.4 µM
GI50 [5]: 4.68 µM
TGI [5]: > 100 µM
GI50 [6]: 9.77 µM
TGI [6]: > 100 µM
GI50 [7]: 5.6 µM
TGI [7]: > 100 µM
GI50 [8]: 3.02 µM
TGI [8]: 58.1 µM
GI50 [9]: 4.45 µM
TGI [9]: > 100 µM
GI50 [10]: 5.24 µM
TGI [10]: > 100 µM
GI50 [11]: 3.36 µM
TGI [11]: 28.3 µM
GI50 [12]: 9.71 µM
TGI [12]: > 100 µM
GI50 [13]: 4.66 µM
TGI [13]: > 100 µM
GI50 [14]: 7.58 µM
TGI [14]: > 100 µM
GI50 [15]: 8.24 µM
TGI [15]: > 100 µM
GI50 [16]: 3.18 µM
TGI [16]: > 100 µM
GI50 [17]: 4.02 µM
TGI [17]: 28.7 µM
GI50 [18]: 4.2 µM
TGI [18]: > 100 µM
GI50 [19]: 9.73 µM
TGI [19]: > 100 µM
GI50 [20]: 4.84 µM
TGI [20]: > 100 µM
GI50 [21]: 1.87 µM
TGI [21]: 5.12 µM
GI50 [22]: 3.63 µM
TGI [22]: > 100 µM
GI50 [23]: 6.6 µM
TGI [23]: 61.6 µM
GI50 [24]: 7.39 µM
TGI [24]: > 100 µM
GI50 [25]: 7.87 µM
TGI [25]: > 100 µM
GI50 [26]: 9.05 µM
TGI [26]: > 100 µM
GI50 [27]: 5.7 µM
TGI [27]: > 100 µM
GI50 [28]: 3.55 µM
TGI [28]: 64.2 µM
GI50 [29]: 3.72 µM
TGI [29]: 27 µM
GI50 [30]: 4.84 µM
TGI [30]: > 100 µM
GI50 [31]: 12.4 µM
TGI [31]: > 100 µM
GI50 [32]: 4.7 µM
TGI [32]: 28.4 µM
GI50 [33]: 6.4 µM
TGI [33]: 87.7 µM
GI50 [34]: 1.92 µM
TGI [34]: 4.41 µM
GI50 [35]: 3.86 µM
TGI [35]: 18.6 µM
GI50 [36]: 3.37 µM
TGI [36]: 11.5 µM
GI50 [37]: 21 µM
TGI [37]: > 100 µM
GI50 [38]: 3.98 µM
TGI [38]: > 100 µM
GI50 [39]: 3.53 µM
TGI [39]: > 100 µM
GI50 [40]: 7.12 µM
TGI [40]: > 100 µM
GI50 [41]: 6.31 µM
TGI [41]: > 100 µM
GI50 [42]: 2.69 µM
TGI [42]: 7.5 µM
GI50 [43]: 4.53 µM
TGI [43]: > 100 µM
GI50 [44]: 52.9 µM
TGI [44]: > 100 µM
GI50 [45]: 7.49 µM
TGI [45]: > 100 µM
GI50 [46]: 2.61 µM
TGI [46]: 8.54 µM
GI50 [47]: 72 µM
TGI [47]: > 100 µM
GI50 [48]: 7.55 µM
TGI [48]: > 100 µM
GI50 [49]: 5.79 µM
TGI [49]: 64.3 µM
GI50 [50]: 7.79 µM
TGI [50]: > 100 µM
GI50 [51]: 16.8 µM
TGI [51]: > 100 µM
GI50 [52]: 3.41 µM
TGI [52]: 58.5 µM
GI50 [53]: 3.9 µM
TGI [53]: > 100 µM
GI50 [54]: 3.94 µM
TGI [54]: 35.2 µM
GI50 [55]: 8.96 µM
TGI [55]: > 100 µM
GI50 [56]: 4.89 µM
TGI [56]: > 100 µM
GI50 [57]: 4.37 µM
TGI [57]: 39.3 µM
GI50 [58]: 9.39 µM
TGI [58]: > 100 µM
GI50 [59]: 3.27 µM
TGI [59]: > 100 µM
